In patent US8323622B2, “Ionic complex nanoparticles for detecting heparanase activities and method for preparing the same” (Korea Institute of Science and Technology, priority 2009, dated 2012):

Columns and labels:
heparanase [1] = biological target: T1, heparanase (Homo sapiens, UniProt Q9Y251); assay: Fluorescence recovery of nanoparticles treated with heparanase or heparanase+inhibitor; assay type: biochemical; conditions: 37[…], one hour; HS-Cy5.5/GC-BHQ3 probe
T1 sequence (Q9Y251 158-543 limits assumed): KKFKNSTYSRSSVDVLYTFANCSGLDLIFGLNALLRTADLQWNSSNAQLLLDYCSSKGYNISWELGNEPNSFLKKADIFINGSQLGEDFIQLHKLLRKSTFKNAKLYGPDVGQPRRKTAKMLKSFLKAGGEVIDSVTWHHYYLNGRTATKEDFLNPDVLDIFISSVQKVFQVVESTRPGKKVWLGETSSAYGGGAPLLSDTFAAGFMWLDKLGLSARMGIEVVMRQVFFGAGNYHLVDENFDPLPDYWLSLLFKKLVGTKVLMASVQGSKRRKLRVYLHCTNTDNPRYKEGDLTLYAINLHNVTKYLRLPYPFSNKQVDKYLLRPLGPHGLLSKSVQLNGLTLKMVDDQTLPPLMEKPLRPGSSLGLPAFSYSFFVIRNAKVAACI
T1 sequence (Q9Y251 36-109 limits assumed): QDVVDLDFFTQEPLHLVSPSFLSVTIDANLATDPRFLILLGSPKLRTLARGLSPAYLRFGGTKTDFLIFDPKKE
Procedure: By using the ionic-complex nanoparticles of HS-Cy5.5/GC-BHQ3 prepared in the preparation example 1, heparanase activities with or without heparanase inhibitor treatment were imaged.
The ionic-complex nanoparticles of HS-Cy5.5/GC-BHQ3 prepared in the preparation example 1 were treacted with ‘heparanase’ and ‘heparanase+inhibitor’ at a temperature of 37 °C for one hour, and then fluorescence emission therefrom by an enzyme degradation reaction was observed. After lapse of one hour, the fluorescence of the nanoparticles was observed by using a Kodak Image Station 4000MM Digital Imaging System mounted with a charge coupled device (CCD) camera. […] From the result, it could be seen that the ionic-complex nanoparticles of HS-Cy5.5/GC-BHQ3 could image heparanase enzymes, and could be applied to a composition for screening drugs of heparanase inhibitors or effects of drugs.

heparanase [2] = biological target: T2, heparanase (Mus musculus, UniProt Q6YGZ1); assay: Imaging of heparanase expression in SCC7 cancer model; assay type: in vivo; conditions: 20 mg/kg heparin injected into cancer tissues 20 minutes before probe; SCC7 nude mice
T2 construct: It is known that the SCC7 cancer tissues express a large amount of heparanase; from tissue; host or cells: SCC7 tumour tissue in nude mice
T2 sequence (Q6YGZ1 150-535 limits assumed): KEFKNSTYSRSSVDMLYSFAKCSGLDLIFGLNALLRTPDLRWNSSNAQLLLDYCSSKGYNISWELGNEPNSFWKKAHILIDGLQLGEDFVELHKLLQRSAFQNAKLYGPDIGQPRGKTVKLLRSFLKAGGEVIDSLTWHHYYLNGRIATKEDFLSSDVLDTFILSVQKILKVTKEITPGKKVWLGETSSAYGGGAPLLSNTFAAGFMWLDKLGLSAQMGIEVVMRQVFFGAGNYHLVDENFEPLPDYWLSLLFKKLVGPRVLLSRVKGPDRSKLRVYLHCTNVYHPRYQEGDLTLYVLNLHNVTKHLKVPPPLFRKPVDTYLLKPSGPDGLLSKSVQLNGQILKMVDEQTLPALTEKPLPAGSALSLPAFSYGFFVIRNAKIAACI
T2 sequence (Q6YGZ1 28-101 limits assumed): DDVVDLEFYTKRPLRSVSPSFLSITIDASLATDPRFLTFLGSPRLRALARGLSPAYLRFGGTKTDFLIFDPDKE
Procedure: To establish a cancer model, 1×10^6 SCC7 cancer cells were implanted in nude mice. Here, the SCC7 are epithelial cancer cells, and commercially available from American Type Culture Collection (ATCC). Next, when the cancer has a size of about 5-8 mm, the ionic-complex nanoparticles of HS-Cy5.5/GC-BHQ3 were injected into veins of the mice tails. Then, heparanase expression was imaged by using an eXplore Optix image device.
It is known that the SCC7 cancer tissues express a large amount of heparanase. Accordingly, in order to test the ability of a heparanase inhibitor to inhibit heparanase, 20 mg/kg of heparin was injected into cancer tissues. After lapse of 20 minutes, the ionic-complex nanoparticles of HS-Cy5.5/GC-BHQ3 were injected into veins of the mice tails. Then, decrease of heparanase activities was imaged by using the explore Optix image device.

- fluorescence intensity of nanoparticles when 'heparanase+inhibitor' were treated (heparanase [1]): decreased
- fluorescence intensity in cancer tissues of heparanase inhibitor-injected group (heparanase [2]): decreased fluorescence intensity
Substance: heparin
